# Reference: patent publication US7411083B2, “Substituted acetic acid derivatives” (Wyeth, priority 2003, dated 2008)
# Molecular target: T1, recombinant human plasminogen activator inhibitor-1 (PAI-1) (Homo sapiens, UniProt P05121)
# T1 construct: purchased Molecular Innovations, Royal Oak, Mich
# Assay: Screening for PAI-1 inhibition (residual tPA activity, Spectrozyme-tPA chromogenic substrate)
# Type: biochemical
# Details: test compound at 100 Um; pH 6.6 buffer, 140 nM PAI-1, 70 nM tPA
# Procedure, shortened: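 PAI-1 at 140 nM, pH 6.6 buffer, preincubated 1 h at room temperature with compound (1-100 μM final, ≤0.2% DMSO), then 70 nM tPA added for 30 min. Residual tPA activity read by Spectrozyme-tPA absorbance at 405 nm at 0 and 60 min. Inhibition taken as residual tPA activity.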
# T1 sequence (P05121 24-402): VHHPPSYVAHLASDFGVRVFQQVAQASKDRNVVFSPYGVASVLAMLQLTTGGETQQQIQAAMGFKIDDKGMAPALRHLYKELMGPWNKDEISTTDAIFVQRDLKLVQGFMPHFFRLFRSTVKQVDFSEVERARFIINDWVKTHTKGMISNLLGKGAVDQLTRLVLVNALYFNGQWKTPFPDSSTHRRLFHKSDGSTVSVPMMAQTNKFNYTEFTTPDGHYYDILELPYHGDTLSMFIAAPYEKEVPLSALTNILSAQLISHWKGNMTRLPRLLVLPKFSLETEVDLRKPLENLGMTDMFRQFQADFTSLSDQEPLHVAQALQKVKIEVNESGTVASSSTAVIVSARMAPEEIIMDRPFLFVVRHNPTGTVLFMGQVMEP
row,inhibition at 100 µM,Compound
1,82%,"O=C(O)CO/N=C/c1cn(Cc2ccccc2)c2ccc(OCc3ccc(C(F)(F)F)cc3)cc12 [Compound 3, ({[(1E)-(1-benzyl-5-{[4-(trifluoromethyl)benzyl]oxy}-1H-indol-3-yl)methylidene]amino}oxy)acetic acid]"
2,85%,"O=C(O)CO/N=C/c1cn(Cc2ccccc2)c2ccc(OCc3ccc(Br)cc3)cc12 [Compound 9, {[((1E)-{1-benzyl-5-[(4-bromobenzyl)oxy]-1H-indol-3-yl}methylidene)amino]oxy}acetic acid]"
3,82%,"Cn1cc(/C=N/OCC(=O)O)c2cc(OCc3ccc(C(F)(F)F)cc3)ccc21 [Compound 32, ({[(1E)-(1-methyl-5-{[4-(trifluoromethyl)benzyl]oxy}-1H-indol-3-yl)methylidene]amino}oxy)acetic acid]"
4,73%,"O=C(O)CO/N=C/c1ccc(C#CCOc2cc(C(F)(F)F)cc(C(F)(F)F)c2)cc1 [Compound 164, ({[(1E)-(4-{3-[3,5-bis(trifluoromethyl)phenoxy]prop-1-ynyl}phenyl)methylidene]amino}oxy) acetic acid]"
5,52%,"CC(C)(C)c1ccc(OCC#Cc2cccc(/C=N/OCC(=O)O)c2)cc1 [Compound 168, {[((1E)-{3-[3-(4-tert-butylphenoxy)prop-1-ynyl]phenyl}methylidene)amino]oxy}acetic acid]"
6,60%,"O=C(O)CO/N=C/c1cccc(C#CCOc2ccc(Br)cc2)c1 [Compound 169, {[((1E)-{3-[3-(4-bromophenoxy)prop-1-ynyl]phenyl}methylidene)amino]oxy}acetic acid]"
7,69%,"O=C(O)CO/N=C/c1cccc(C#CCOc2cc(Cl)cc(Cl)c2)c1 [Compound 171, {[((1E)-{3-[3-(3,5-dichlorophenoxy)prop-1-ynyl]phenyl}methylidene)amino]oxy}acetic acid]"
8,44%,"O=C(O)CO/N=C/c1cccc(C#CCOc2cccc(Cl)c2)c1 [Compound 172, {[((1E)-{3-[3-(3-chlorophenoxy)prop-1-ynyl]phenyl}methylidene)amino]oxy}acetic acid]"

# Further lines, the compound ahead of its results:
row,Compound,inhibition at 100 µM
1,"O=C(O)CO/N=C/c1cc(OCc2ccc(F)c(F)c2)ccc1OCc1ccc(F)c(F)c1 [Compound 161, {[((1E)-{2,5-bis[(3,4-difluorobenzyl)oxy]phenyl}methylidene)amino]oxy}acetic acid]",92%
2,"CC(C)(C)c1ccc(OCC#Cc2ccc(/C=N/OCC(=O)O)cc2)cc1 [Compound 162, {[((1E)-{4-[3-(4-tert-butylphenoxy)prop-1-ynyl]phenyl}methylidene)amino]oxy}acetic acid]",51%
3,"O=C(O)CO/N=C/c1ccc(C#CCOc2ccc(Br)cc2)cc1 [Compound 163, {[((1E)-{4-[3-(4-bromophenoxy)prop-1-ynyl]phenyl}methylidene)amino]oxy}acetic acid]",65%
4,"O=C(O)CO/N=C/c1ccc(C#CCOc2cc(Cl)cc(Cl)c2)cc1 [Compound 165, {[((1E)-{4-[3-(3,5-dichlorophenoxy)prop-1-ynyl]phenyl}methylidene)amino]oxy}acetic acid]",68%
5,"O=C(O)CO/N=C/c1ccc(C#CCOc2cccc(Cl)c2)cc1 [Compound 166, {[((1E)-{4-[3-(3-chlorophenoxy)prop-1-ynyl]phenyl}methylidene)amino]oxy}acetic acid]",42%
6,"CC(C)Cc1ccc(OCC#Cc2ccc(/C=N/OCC(=O)O)cc2)cc1 [Compound 167, {[((1E)-{4-[3-(4-isobutylphenoxy)prop-1-ynyl]phenyl}methylidene)amino]oxy}acetic acid]",53%
7,"O=C(O)CO/N=C/c1cccc(C#CCOc2cc(C(F)(F)F)cc(C(F)(F)F)c2)c1 [Compound 170, ({[(1E)-(3-{3-[3,5-bis(trifluoromethyl)phenoxy]prop-1-ynyl}phenyl)methylidene]amino}oxy)acetic acid]",73%
8,"CC(C)Cc1ccc(OCC#Cc2cccc(/C=N/OCC(=O)O)c2)cc1 [Compound 173, {[((1E)-{3-[3-(4-isobutylphenoxy)prop-1-ynyl]phenyl}methylidene)amino]oxy}acetic acid]",56%

# Molecular target: human PAI-1 (Homo sapiens, UniProt P05121)
# Assay: Assay for determining the IC50 of inhibition of PAI-1 (active PAI-1 bound to tPA-coated plate, 33B8 antibody detection)
# Type: biochemical
# Details: values carry suffix (K), not explained; test compounds 1-50 μM, pH 7.5
# Protocol: Assay for determining the IC50 of inhibition of PAI-1. This assay is based upon the non-SDS dissociable interaction between Tpa and active PAI-1. Assay plates are initially coated with human Tpa (10 μg/ml). Test compounds are dissolved in DMSO at 10 Mm, then diluted with physiologic buffer (Ph 7.5) to a final concentration of 1-50 μM. The test compounds are incubated with human PAI-1 (50 ng/ml) for 15 minutes at room temperature. The Tpa-coated plate is washed with a solution of 0.05% Tween 20 and 0.1% BSA, then the plate is blocked with a solution of 3% BSA. An aliquot of the test compound/PAI-1 solution is then added to the Tpa-coated plate, incubated at room temperature for 1 hour, and washed. Active PAI-1 bound to the plate is assessed by adding an aliquot of a 1:1000 dilution of the 33B8 monoclonal antibody against human PAI-1, and incubating the plate at room temperature for 1 hour (Molecular Innovations, Royal Oak, Mich.). The plate is again washed, and a solution of goat anti-mouse IgG-alkaline phosphatase conjugate is added at a 1:50,000 dilution in goat serum. The plate is incubated 30 minutes at room temperature, washed, and a solution of alkaline phosphatase substrate is added. The plate is incubated 45 minutes at room temperature, and color development is determined at OD405 nm. The quantitation of active PAI-1 bound to Tpa at varying concentrations of the test compound is used to determine the IC50. Results are analyzed using a logarithmic best-fit equation. The assay sensitivity is 5 ng/ml of human PAI-1 as determined from a standard curve ranging from 0-100 ng/ml.
# Chain of human PAI-1 (P05121 24-402): as above
row,IC50,Compound
1,1.85 µM,"O=C(O)CO/N=C/c1cn(Cc2ccccc2)c2ccc(OCc3ccc(C(F)(F)F)cc3)cc12 [Compound 3, ({[(1E)-(1-benzyl-5-{[4-(trifluoromethyl)benzyl]oxy}-1H-indol-3-yl)methylidene]amino}oxy)acetic acid]"
2,16.9 µM,"O=C(O)CO/N=C/c1cn(Cc2ccccc2)c2ccc(OCc3ccc(Br)cc3)cc12 [Compound 9, {[((1E)-{1-benzyl-5-[(4-bromobenzyl)oxy]-1H-indol-3-yl}methylidene)amino]oxy}acetic acid]"
3,9.36 µM,"Cn1cc(/C=N/OCC(=O)O)c2cc(OCc3ccc(C(F)(F)F)cc3)ccc21 [Compound 32, ({[(1E)-(1-methyl-5-{[4-(trifluoromethyl)benzyl]oxy}-1H-indol-3-yl)methylidene]amino}oxy)acetic acid]"
